This is an account of results in US20230272083A1, “COMBINATION OF AN ANTI-PD-L1 ANTIBODY AND A DNA-PK INHIBITOR FOR THE TREATMENT OF CANCER” (Merck Patent GmbH, priority 2017, published 2023).

Series [1] deals with p53 wild-type cancer cells (A549, A375, H460). Put plainly: Cell cycle arrest and senescence after ionizing radiation plus M3814. It is filed as cell-based.
The subject of another series is A549 and A375 cells. Nature of the series: Nanostring PanCancer Immune panel mRNA analysis of IR/M3814 induced senescent cells. It is filed as cell-based. As to the method:
(§1) These substantial changes in gene expression were built gradually and correlated with the development of senescence phenotype. Several proteins from the induced subset were measured in the cell media (Meso Scale Discovery) and confirmed that they are secreted by senescent cells in the absence of M3814.

Series [2] has as its system murine colon tumor model MC38. Nature of the series: M3814 and avelumab in syngeneic MC38 tumor model (Example 1). It is filed as in vivo, C57BL6/N mice. Conditions: M3814 150 mg/kg orally once daily, avelumab 400 μg/mouse intravenously on days 3, 6 and 9; for median time the tumors needed to double in size as compared to their initial volume at day 0: Kaplan-Meyer evaluation. From the text:
This model allows the use of immunocompetent mice, a necessary requirement to study the T-cell mediated antitumor effect of Avelumab. The experimental set up included the induction of MC38 tumors in C57BL6/N mice by injection of 1×10^6 tumor cells into the right flank of the animals. Tumor growth was followed over time by measuring length and width using a caliper. When tumors were established to an average size of 50-100 mm^3, mice were subdivided in 4 treatment groups with 10 animals each, and treatment started. This day was defined as day 0. Group 1 received vehicle treatment. Group 2 received M3814 orally once daily at 150 mg/kg in a volume of 10 ml/kg. Group 3 received avelumab intravenously once daily at 400 μg/mouse in a volume of 5 ml/kg on days 3, 6 and 9. Group 4 received M3814 orally once daily at 150 mg/kg in a volume of 10 ml/kg and avelumab intravenously once daily at 400 μg/mouse in a volume of 5 ml/kg on days 3, 6 and 9.

A further series concerns the target DNA-PK (Homo sapiens, UniProt P78527). Nature of the series: Crystallographic and enzyme kinetics studies. It is filed as biochemical. From the text:
DNA-PK, together with five additional protein factors (Ku70, Ku80, XRCC4, Ligase IV and Artemis) plays a critical role in the repair of DSB via NHEJ. Kinase activity of DNA-PK is essential for proper and timely DNA repair and the long-term survival of cancer cells.

The subject of series [3] is human PBMC-derived immune cells. Nature of the series: Effect of culture media from M3814-induced senescent cells on immune cells (live imaging). It is filed as cell-based. The method, then: as §1
For series [4] the following is noted: 10 mg/kg dose; cited from earlier work.

In the case of `COc1ccc([C@@H](O)c2cc(-c3ncnc4cc(N5CCOCC5)ccc34)c(F)cc2Cl)nn1` [Compound M3814, (S)-[2-chloro-4-fluoro-5-(7-morpholin-4-yl-quinazolin-4-yl)-phenyl]-(6-methoxypyridazin-3-yl)-methanol], the “reversibility of senescence phenotype following compound removal” value in series [1] (A549 cells, live cell imaging and BrdU labeling) is on record as “not reversible”. The “time to typical senescence phenotype (large/flat morphology, β-Gal staining)” value in series [1] (IR 2-5Gy plus sustained M3814) is reported as 4-7 days. In addition, the “ATM dependent signaling, including CHK2 and p53-dependent cell cycle arrest” value in series [1] (in the presence of DDSBs) is “enhanced activation of the ATM dependent signaling”. For the same compound, in series [1] (isogenic p53-null A549 cells, IR plus M3814), the “cell cycle arrest in isogenic p53-null cells” value is “lost the ability to fully arrest their cell cycle”. The cell cycle effect result in series [1] (proliferating p53 wild-type A549, A375, H460, single dose of ionizing radiation (2-5Gy) and sustained exposure to M3814) is “complete cell cycle block”. Also, the “upregulation of eighteen immune response genes compared to controls” value in the series with A549 and A375 cells is 3-150 fold. In series [2], the “median time the tumors needed to double in size as compared to their initial volume at day 0” value is 10 days and the “T/C values calculated at day 13” value is on record as 47%. On DNA-PK, the “inhibition of DNA-PK” value was “potent and selective ATP-competitive inhibitor”. In series [3], the “immunomodulatory effect of culture media from M3814-induced senescent cells” value is given as “increased immunomodulatory effect”.

Take “avelumab: fully human monoclonal antibody of the immunoglobulin (Ig) G1 isotype; selectively binds to PD-L1”: in series [2], the “median time the tumors needed to double in size as compared to their initial volume at day 0” value was found to be 13 days and the “T/C values calculated at day 13” value is given as 60%. Moreover, in series [4], the receptor occupancy result is listed as “excellent receptor occupancy” and the tolerability result was “well tolerated”.
